Data on one molecule can be found in patent US9981025B2, “Anti-drug vaccines” (priority 2009, dated 2018).

A short description of the series: Cocaine degradation in mouse sera by mass spectrometry. The format is in vitro ADME. From the text:
FIG. 15. Degradation of cocaine in non-immune mouse serum (NIS) and in non-immune mouse serum diluted in PBS (PBS/NIS) by mass spectrometry.
FIGS. 16A-B. Rates of cocaine degradation in (A) non-immune mouse sera and (B) 5 immune mouse sera measured by a decrease in peak area (y-axis) of the cocaine peak generated by mass-spectrometry analysis.
The kinetics of cocaine degradation in immune and non-immune mouse sera was then studied by mass spectroscopy to discern the pharmacological effects of anti-coc antibodies. Although degradation rates were nearly uniform in all non-immune mice (FIG. 16A), significant differences existed in the rates in immune mice, depending on the titer of anti-coc antibodies in the plasma (FIG. 16B).

For the molecule `COC(=O)[C@@H]1C2CCC(C[C@@H]1OC(=O)c1ccccc1)N2C` (some centres unmarked) [cocaine], the “rate of cocaine degradation” value was “degradation rates conversely decreased” (immune mouse sera, with increasing titer of anti-coc antibodies) and “decreased rate of cocaine degradation” (non-immune mouse serum diluted in PBS versus undiluted).
